Results taken from EPA's ToxRefDB 2.

Key:
[1] = test system: rat; conditions: Combined chronic toxicity/carcinogenicity; sprague dawley; Oral; Feed; dose end: 104 week; group: systemic; systemic / pathology microscopic / liver / hypertrophy + systemic / pathology microscopic / stomach / hyperkeratosis + systemic / pathology …
[2] = test system: dog; conditions: Chronic toxicity, beagle, Oral, Feed, dose end: 104 week, group: systemic
[3] = test system: rat; conditions: Subchronic oral toxicity in rodents, fischer, Feed, dose end: 90 day, group: systemic, systemic / organ weight / kidney / absolute + systemic / organ weight / kidney / relative to body weight + systemic / pathology gross / …
[4] = test system: dog; conditions: Chronic toxicity, beagle, Oral, Capsule, dose end: 52 week, group: systemic
[5] = test system: mouse; conditions: Carcinogenicity, cd1, Oral, Feed, dose end: 24 month, group: systemic
[6] = test system: dog; conditions: Subchronic oral toxicity in nonrodent, beagle, Feed, dose end: 13 week, group: systemic
[7] = test system: rat; conditions: Sub-acute dermal toxicity, fischer, Topical, dose end: 21 day, group: systemic, systemic / in life observation / clinical signs / desquamation + systemic / pathology microscopic / skin / hyperkeratosis + systemic / …
[8] = test system: mouse; conditions: Carcinogenicity, cd1, Oral, Feed, dose end: 104 week, group: systemic
[9] = test system: mouse; conditions: Subchronic oral toxicity in rodents, cd1, Feed, dose end: 90 day, group: systemic
[10] = systemic / clinical chemistry / bilirubin / total bilirubin
[11] = systemic / clinical chemistry / alanine aminotransferase (alt/sgpt) / alanine aminotransferase (alt/sgpt)
[12] = systemic / organ weight / liver / relative to body weight
[13] = systemic / pathology microscopic / liver / inflammation + systemic / clinical chemistry / alanine aminotransferase (alt/sgpt) / alanine …
[14] = systemic / pathology microscopic / kidney / hyperplasia + systemic / pathology microscopic / stomach / carcinoma + systemic / pathology …
[15] = systemic / pathology gross / urinary bladder / lesion(s) (nos)

`N#Cc1c(Cl)c(Cl)c(Cl)c(C#N)c1Cl` [Chlorothalonil] was tested, and the LEL [1] was 0.7 mg/kg/day, the LOAEL [1] was 0.9 mg/kg/day and the NEL [1] was < 0.7 mg/kg/day. For the same compound, the NOAEL [1] was < 0.9 mg/kg/day, the LEL [2, 10] was 1.8 mg/kg/day and the NEL [2, 10] was < 1.8 mg/kg/day. It also gave an LOAEL ([2]; systemic / pathology microscopic / kidney / vacuolization + systemic / clinical chemistry / bilirubin / total bilirubin) of 3.5 mg/kg/day, an NOAEL ([2]; systemic / pathology microscopic / kidney / vacuolization + systemic / pathology microscopic / kidney / pigmentation) of 1.8 mg/kg/day and an LEL [3] of 175 mg/kg/day. The LOAEL [3] was 175 mg/kg/day, the NEL [3] was < 175 mg/kg/day and the NOAEL [3] was < 175 mg/kg/day. The LEL [4, 11] was 15 mg/kg/day, the NEL [4, 11] was < 15 mg/kg/day and the LOAEL ([4]; systemic / in life observation / body weight / body weight gain) was 500 mg/kg/day. For the same compound, the NOAEL ([4]; systemic / in life observation / body weight / body weight gain + systemic / clinical chemistry / alanine aminotransferase (alt/sgpt) / …) was 150 mg/kg/day, the LOAEL ([5]; systemic / in life observation / body weight / body weight) was 225 mg/kg/day and the NOAEL ([5]; systemic / in life observation / body weight / body weight + systemic / hematology / erythrocyte (rbc) count differential / erythrocyte (rbc…) was 112 mg/kg/day. The LEL [5, 12] was 56.2 mg/kg/day, the NEL [5, 12] was < 56.2 mg/kg/day and the LOAEL ([6]; systemic / pathology microscopic / liver / infiltration cellular + systemic / pathology microscopic / liver / inflammation) was 56.5 mg/kg/day. The NOAEL ([6]; systemic / pathology microscopic / liver / infiltration cellular + systemic / pathology microscopic / liver / inflammation + systemic / …) was 5.6 mg/kg/day, the LEL [6, 13] was 5.6 mg/kg/day and the NEL [6, 13] was < 5.6 mg/kg/day. For the same compound, the LEL [7] was 60 mg/kg/day, the LOAEL [7] was 60 mg/kg/day and the NEL [7] was < 60 mg/kg/day. For the same compound, the NOAEL [7] was < 60 mg/kg/day, the LOAEL ([8]; systemic / pathology microscopic / kidney / hyperplasia) was 26.2 mg/kg/day and the NEL [8, 14] was 1.5 mg/kg/day. It also gave an NOAEL [8, 14] of 6 mg/kg/day, an LEL ([8]; systemic / pathology microscopic / stomach / hyperkeratosis + systemic / pathology microscopic / stomach / hyperplasia) of 6 mg/kg/day and an LEL [9, 15] of 1.12 mg/kg/day. For the same compound, the NEL [9, 15] was < 1.12 mg/kg/day, the NOAEL ([9]; systemic / pathology microscopic / stomach / hyperkeratosis + systemic / pathology microscopic / stomach / hyperplasia + systemic / clinical…) was 2.25 mg/kg/day and the LOAEL ([9]; systemic / pathology microscopic / stomach / hyperkeratosis + systemic / pathology microscopic / stomach / hyperplasia + systemic / …) was 7.5 mg/kg/day.
